# Measured values from US11007179B2, “Opioid receptor modulator dosage formulations” (Allergan Holdings Unlimited Company, priority 2013, dated 2021).
# Columns and labels:
# stressed subjects = test: gastrointestinal motility in stressed subjects, oral administration; assay type: in vivo
# rats = test: visceral hyperalgesia in rats, oral administration; assay type: in vivo
# [1] = system: stressed and non-stressed mice; conditions: cited from earlier work
Compound,gastrointestinal (GI) motility (stressed subjects),anti-visceral hyperalgesic effects (rats),dose range of the effect [1],gastrointestinal transit and fecal output [1]
COc1ccc(CN(C(=O)C(N)Cc2c(C)cc(C(N)=O)cc2C)C(C)c2nc(-c3ccccc3)c[nH]2)cc1C(=O)O (stereo not shown) [active ingredient],efficacious in normalizing gastrointestinal (GI) motility,providing anti-visceral hyperalgesic effects,,
CN(C)C(=O)C(CCN1CCC(O)(c2ccc(Cl)cc2)CC1)(c1ccccc1)c1ccccc1 [loperamide],,,narrow dose range,completely prevented fecal output
